Here are results for 21 compounds from patent US4960771A, “Oxazolidinone penetration enhancing compounds” (priority 1988, dated 1990).

The structures appear in SMILES notation. Structures can show the parent of a compound that is named as a salt. Where two headings read alike, the source gives them in different places.

The conditions of data set [1]: for permeation enhancing properties (conclusion in words): ISDN cream, vs control; for Average Cumulative Amount of ISDN in Micrograms permeating over 51 hours: cream, 1% ISDN + 1% enhancer.
Data set [2] can be described thus: Permeation of Diltiazem hydrochloride (DZ) from cream through human stratum corneum (Example 35). The data set is classed as in vitro ADME. An excerpt:
(§1) Sci. 75, 1094 (1986). […] All formulations were studied in triplicate.

The conditions of data set [3]: for permeation enhancing properties (conclusion in words): ISDN cream, 51 hours; for Average Cumulative Amount of ISDN in Micrograms permeating over 51 hours: cream.
Data set [4] is classed as in vitro ADME, human. The conditions noted are these: for Average Cumulative Amount of PG in Micrograms permeating over 51 hours: patch, releasing media 30% ethanol in normal saline.
Description: as §1
The procedure of Example 29 was repeated with Progesterone (PG) incorporated in transdermal patch formulations. The releasing media contained 30% ethanol in normal saline.

Data set [5] in a line: Permeation of Morphine Sulfate (MS) from transdermal patch through human stratum corneum (Example 33). Format: in vitro ADME.
Description: as §1
The procedure of Example 29 was repeated with Morphine Sulfate (MS) formulations incorporated in a transdermal patch.

Data set [6] is classed as in vitro ADME, human.
Description: as §1

For data set [7] the following is noted: cream.
The format of data set [8] is in vitro ADME, human. The method, then:
as §1
The Indomethacin (INDO) gel formulation used in Example 32 was prepared as follows.
The source holds these as a separate data set.

The conditions of data set [9]: for Average Cumulative Amount of ISDN in Micrograms permeating over 51 hours: patch.
The conditions of data set [10]: 1% Diazepam in 74% ethanol and 25% compound; cited from earlier work.
For data set [11] the following is noted: cited from earlier work.
For data set [12] the following is noted: Barry et al., J. Pharm. Pharmacol. 37, 226 (1985); cited from earlier work.
The subject of data set [13] is Murine Erythroleukemia. The conditions noted are these: Li et al., J. Med. Chem. 24, 1089 (1981); cited from earlier work.
The conditions of data set [14]: 0.8% Clonidine; 75.2% compound + 25% isopropyl myristate vs 99.2% compound vs 99.2% DMSO; cited from earlier work.
For data set [15] the following is noted: Ishihara, C.A. 105: 48896 k (1986); cited from earlier work.

For `CCCCCCCCOCCN1CCOC1=O` [Example 18, 3-(2-octyloxyethyl)oxazolidin-2-one], in data set [1], the “permeation enhancing properties (conclusion in words)” value (shortened to “permeation enhancing properties”) is given as “superior permeation enhancing properties as compared to control” and the “Average Cumulative Amount of ISDN in Micrograms permeating over 51 hours” value turned out to be 1185.1 ± 94.7 Micrograms.

Consider `COc1ccc([C@@H]2Sc3ccccc3N(CCN(C)C)C(=O)[C@@H]2OC(C)=O)cc1` [DZ, Diltiazem hydrochloride, reference compound], for which the “Average Cumulative amount of DZ in Micrograms permeating over 24 hours” value in [2] (5% DZ, no enhancer (Control)) amounted to 125.3 ± 37 Micrograms.

In the case of `CCCCCCCCOC1C(OCCCCCCCC)N(C)C(=O)N1C` (centres unmarked) [Example 15, 4,5-dioctyloxy-1,3-dimethylimidazolidin-2-one], in [1], the “permeation enhancing properties” value is on record as “superior permeation enhancing properties as compared to control” and the “Average Cumulative Amount of ISDN in Micrograms permeating over 51 hours” value was determined as 1175.6 ± 33.6 Micrograms.

For the compound `CCCCCCCCCCC1COC(=O)N1C` (centres unmarked) [Example 2, 3-methyl-4-decyloxazolidin-2-one], in [3], the “permeation enhancing properties” value is “superior permeation enhancing properties as compared to control and a known permeation enhancer”. Moreover, the “Average Cumulative Amount of ISDN in Micrograms permeating over 51 hours” value in data set [3] (1% ISDN + 1.6% enhancer) turned out to be 1020 ± 69 Micrograms.

Consider `CCCCCCCCCCC1COC(=O)N1` (centres unmarked) [Example 1, 4-Decyloxazolidin-2-one], for which the “superiority of transdermal patch containing enhancer (conclusion in words)” value in data set [4] (PG patch) is “superiority of the transdermal patch”. In addition, the “Average Cumulative Amount of PG in Micrograms permeating over 51 hours” value in [4] (3% PG + 5% enhancer) stood at 434 ± 135 Micrograms. The “superiority of patch formulation containing enhancer (conclusion in words)” value in data set [5] (MS patch) is listed as “superiority of the transdermal patch formulation”. Further, in [5] (patch, 5% MS + 1% enhancer), the “Average Cumulative Amount of MS in Micrograms permeating over 51 hours” value turned out to be 622 ± 81.6 Micrograms. Moreover, the “Average Cumulative amount of DZ in Micrograms permeating over 24 hours” value in [2] (5% DZ + 3% enhancer) is given as 303.0 ± 79.1 Micrograms. Moreover, in data set [2] (vs control), the “permeation of Diltiazem hydrochloride through the skin (conclusion in words)” value is given as “improves the permeation of Diltiazem hydrochloride through the skin significantly over the control”. In data set [6] (cream and patch, vs control), the “permeation enhancement of Nicotine (conclusion in words)” value was “enhances the permeation significantly over control”. For the same compound, the “Average Cumulative Amount of Nicotine in Micrograms permeating over 51 hours” value in [6] (cream, 1% Nicotine + 3% enhancer) came to 2002.0 ± 74.0 Micrograms; in [6] (cream, 5% Nicotine + 3% enhancer) it was 8497.2 ± 1195 Micrograms; in data set [6] (patch, 5% Nicotine + 3% enhancer), 208.1 ± 23.6 Micrograms; in data set [6] (patch, 10% Nicotine + 3% enhancer), 3520.0 ± 139.0 Micrograms. In addition, in data set [7] (0.5% HC + 1% enhancer), the “Average Cumulative Amount of HC in Micrograms permeating over 24 hours” value is on record as 4.970 ± 0.79 Micrograms. In addition, the “permeation of HC (conclusion in words)” value in data set [7] (vs control and commercial formulation) was “superior permeation as compared to control cream and to a commercial formulation with higher quantity of drug”. The “permeation enhancing properties” value in [3] is “superior permeation enhancing properties as compared to control and a known permeation enhancer”. For the same compound, the “Average Cumulative Amount of ISDN in Micrograms permeating over 51 hours” value is 1275 ± 104 Micrograms in data set [3] (1% ISDN + 1.4% enhancer), 1438.4 ± 174 Micrograms in data set [9] (3% ISDN (60%) + 8% enhancer) and 1355.8 ± 262.5 Micrograms in [9] (3% ISDN (100%) + 3% enhancer). The “advantage of incorporating enhancer (conclusion in words)” value in [8] (INDO gel and cream) was “clearly show the advantage of incorporating enhancer”. The “Average Cumulative Amount of INDO in Micrograms permeating over 51 hours” value in [8] (cream, 1% INDO + 1% enhancer) is reported as 128 ± 6.1 Micrograms; in [8] (gel, 1% INDO + 1% enhancer), 370.9 ± 56 Micrograms. Further, the “permeation of ISDN from the transdermal patch (conclusion in words)” value in data set [9] (vs control) is on record as “superior to the control”.

On to `CCCCCN1CCN(CCCCC)C1=O` [1,3-dipentylimidazolidin-2-one], for which the “drug transport when combined with a polar substance such as ethanol” value in data set [10] was “potentiates the drug transport”.

Regarding `CCCCN1CCN(CCOCC)C1=O` [Example 22, 1-butyl-3-(2-ethoxyethyl)imidazolidin2-one], in data set [1], the “permeation enhancing properties” value is on record as “superior permeation enhancing properties as compared to control” and the “Average Cumulative Amount of ISDN in Micrograms permeating over 51 hours” value worked out at 1091.2 ± 125.0 Micrograms.

For the compound `CCOCCCN1CCOC1=O` [Example 16, 3-(3-ethoxypropyl)oxazolidin-2-one], in [1], the “permeation enhancing properties” value is listed as “superior permeation enhancing properties as compared to control” and the “Average Cumulative Amount of ISDN in Micrograms permeating over 51 hours” value was found to be 1110.9 ± 84.1 Micrograms.

Regarding `CC1COC(=O)O1` (centres unmarked) [propylene carbonate, 4-methyl-1,3-dioxolan-2-one], the solubility in water entry in data set [11] is recorded as “water soluble”. For the same compound, in data set [12], the “flux of model penetrants through human skin” value is reported as “low flux”.

As to `CCCCN1CCCN(CCCC)C1=O` [1,3-dibutyltetrahydropyrimidin-2-one, 1,3-dibutyltetrahydro-pyrimidin-2-ones], in data set [13], the “inducers of Murine Erythroleukemia differentiation” value was “inducers of Murine Erythroleukemia differentiation”.

As for `CCCCCCCCCCCC1CNC(=O)N1` (centres unmarked) [Example 19, 4-undecylimidazolidin-2-one], in [1], the “permeation enhancing properties” value is “superior permeation enhancing properties as compared to control” and the “Average Cumulative Amount of ISDN in Micrograms permeating over 51 hours” value was 1318.4 ± 21.6 Micrograms.

Regarding `CCCCCCCCCCCCN1CCCCCC1=O` [1-Dodecylhexahydro-2H-azepin-2-one, 1-Dodecyl-hexahydro-2H-azepin-2-one, reference compound], the “Average Cumulative Amount of ISDN in Micrograms permeating over 51 hours” value in data set [3] (1% ISDN + 1.4% enhancer) is on record as 709 ± 170 Micrograms.

On to `CCCCCCCCCCC1COC(=O)O1` (centres unmarked) [Example 10, 4-decyl-1,3-dioxolan-2-one], for which, in [1], the “permeation enhancing properties” value was “superior permeation enhancing properties as compared to control” and the “Average Cumulative Amount of ISDN in Micrograms permeating over 51 hours” value was found to be 1174.5 ± 37.2 Micrograms.

`CCCCN1C(=O)N(CCC)C(OCC)C1OCC` (centres unmarked) [Example 12, 4,5-diethoxy-1-butyl-3-propylimidazolidin-2-one]: in data set [1], the “permeation enhancing properties” value is reported as “superior permeation enhancing properties as compared to control” and the “Average Cumulative Amount of ISDN in Micrograms permeating over 51 hours” value worked out at 1057.7 ± 12.0 Micrograms.

Take `COc1ccc2c(c1)c(CC(=O)O)c(C)n2C(=O)c1ccc(Cl)cc1` [INDO, Indomethacin, reference compound]: the “Average Cumulative Amount of INDO in Micrograms permeating over 51 hours” value in data set [8] (cream, 1% INDO, no enhancer) was 72 ± 9 Micrograms; in [8] (gel, 1% INDO, no enhancer (Control)) it was 304.8 ± 20 Micrograms.

For `CN1CCN(C)C1=O` [1,3-dimethylimidazolidin-2-one], the “tail arterial blood pressure” value in [14] is reported as “no significant differences in tail arterial blood pressure in rats”.

With `CCCCN1C(=O)OCC1Cc1ccccc1` (centres unmarked) [Example 20, 3-butyl-4-benzyloxazolidin-2-one], in data set [1], the “permeation enhancing properties” value is on record as “superior permeation enhancing properties as compared to control” and the “Average Cumulative Amount of ISDN in Micrograms permeating over 51 hours” value was found to be 1147.7 ± 36.0 Micrograms.

As for `CCCCCCCCCCCC1CN(C)C(=O)N1C` (centres unmarked) [Example 21, 1,3-dimethyl-4-undecylimidazolidin-2-one], in [1], the “permeation enhancing properties” value was “superior permeation enhancing properties as compared to control” and the “Average Cumulative Amount of ISDN in Micrograms permeating over 51 hours” value was 1257.0 ± 137.0 Micrograms.

With `O=C1OCCO1` [ethylene carbonate, 1,3-dioxolan-2-one], in data set [15], the “efficacy on addition to the composition” value is “did not improve the efficacy”.

On to `CC(=O)[C@H]1CC[C@H]2[C@@H]3CCC4=CC(=O)CC[C@]4(C)[C@H]3CC[C@]12C` [PG, Progesterone, reference compound], for which the “Average Cumulative Amount of PG in Micrograms permeating over 51 hours” value in data set [4] (3% PG, no enhancer (Control)) is given as 86 ± 61 Micrograms.

Regarding `CCN1CCCN(CC)C1=O` [1,3-diethyltetrahydropyrimidin-2-one, 1,3-diethyl], the “inducers of Murine Erythroleukemia differentiation” value in data set [13] is “inducers of Murine Erythroleukemia differentiation”.
